# Results as given in patent US11304419B2, “Methods to induce heat stress tolerance in plants” (Valent BioSciences LLC, priority 2020, dated 2022).
# What was measured:
# Format in all cases: in vivo
# Apogee wheat = assay: Heat stress tolerance in wheat following ACC application at Feekes stage 5 (Example 2); conditions: heat stress 34/28° C. 4 days
# Experimental: Apogee wheat was seeded into ProMix BX (Premier Horticulture) and grown in a growth cabinet under the following conditions: 24/18° C. day/night temperature under a 16/8 hour light/dark photoperiod. Plants were evaluated at Feekes stage 5 following the first set of growth conditions on Nov. 15, 2019. Next, spray applications of 0, 0 or 100 ppm ACC (n=8) were made using a track sprayer. Next, 2 days following treatment, one set of control plants (“treatment control”) and the 100 ppm ACC plants were transferred to a second growth cabinet at 34/28° C. day/night temperature under a 16/8-hour light/dark photoperiod for 4 days. These conditions constitute significant heat stress. The other set of control plants (“stress control”) remained in the first growth cabinet. Finally, the plants were then returned to the first growth cabinet for about 14 days where plants reached Feekes stage 10.1 (head emergence). Plants were then destructively harvested and measured for total spike number, fresh weight, total reproductive tiller number, percent reproductive tillers, A canopy density and total dry weight. Percent reproductive tillers is calculated by dividing the number of reproductive tillers by the total number of spikes at harvest. A canopy density is calculated by subtracting the canopy density at treatment from the canopy density at harvest.
# Butterhead lettuce = assay: Heat stress tolerance in lettuce following ACC application at rosette stage; conditions: heat stress 34/30° C. nine days; for Canopy Density / Fresh Weight / Δ Canopy Density: n = 5; for Canopy Density, percent increase over stress control / Fresh Weight, percent increase over stress control / Δ Canopy Density, percent increase over stress control: vs stress control; for Canopy Density, percent increase over treatment control / Fresh Weight, percent increase over treatment control / Δ Canopy Density, percent increase over treatment control: vs treatment control
# Experimental: Butterhead lettuce was seeded into ProMix BX (Premier Horticulture) and grown in a greenhouse. Three weeks post-sowing the lettuce was transferred to a growth cabinet under the following conditions: 24/18° C. day/night temperature under a 16/8 hour light/dark photoperiod. Plants were at head formation (rosette) stage following the first set of growth conditions. 4 days after transfer canopy density was calculated. Next, spray applications of 0, 10, 30 or 100 ppm ACC (n=5) were made using a track sprayer on Sep. 21, 2020. Next, two days following treatment, half of the plants were transferred to a second growth cabinet at 34/30° C. day/night temperature under a 16/8-hour light/dark photoperiod for nine days. These conditions constitute significant heat stress. Plants were then destructively harvested and measured for fresh weight, size, canopy density and A canopy density. A canopy density is calculated by subtracting the canopy density at treatment from the canopy density at harvest.
# [1] = test system: dwarf variety of Brassica napus; assay: Heat stress tolerance in Brassica napus following ACC application; conditions: heat stress 36/30° C. seven days; for Seed Number per Pod / Seed Yield per Pod / Single Seed Weight: n = 10; for Seed Number per Pod, percent increase over treatment control / Seed Yield per Pod, percent increase over treatment control / Single Seed Weight, percent increase over treatment control: vs treatment control
# Experimental: A dwarf variety of Brassica napus commonly used as an experimental model for the canola variety of B. napus was seeded into ProMix BX (Premier Horticulture) and grown in a greenhouse. […] Following spraying, plants were moved to a growth cabinet under the following conditions: 24/18 C day night temperatures under a 16/8 light dark period. Next, 2 days following treatment, half of the plants were transferred to a second growth cabinet at 36/30° C. day/night temperature under a 16/8-hour light/dark photoperiod for seven days. These conditions constitute early season heat stress. At all times flowers and pods were pruned to keep the number of pods to about 10. Plants were then destructively harvested and measured for seed yield, seed numbers, seed yield per pod, seed number per pod and single seed weight.
# [2] = 100 ppm ACC spray at Feekes stage 5, n = 8
# [3] = 100 ppm ACC, vs stress control (no heat)
# [4] = 100 ppm ACC, vs treatment control (heat, no ACC)
# [5] = 10 ppm ACC spray at rosette stage
# [6] = 30 ppm ACC spray at rosette stage
# [7] = 100 ppm ACC spray at rosette stage
smiles,measurement,setting,value
"NC1(C(=O)O)CC1 [ACC, 1-amino-1-cyclopropanecarboxylic acid]",% Reproductive Tillers,Apogee wheat; [2],89.60%
same,Fresh Weight,Apogee wheat; [2],9.18 grams
same,Total Dry Weight,Apogee wheat; [2],2.12 grams
same,Total Spike Number,Apogee wheat; [2],3.13
same,Total Tiller Number,Apogee wheat; [2],2.75
same,Δ Canopy Density,Apogee wheat; [2],1.52
same,"Fresh Weight, percent increase over stress control",Apogee wheat; [3],(−18.8%)
same,"Total Dry Weight, percent increase over stress control",Apogee wheat; [3],(−16.9%)
same,"Total Spike Number, percent increase over stress control",Apogee wheat; [3],(−7.1%)
same,"Total Tiller Number, percent increase over stress control",Apogee wheat; [3],(−12.1%)
same,"% Reproductive Tillers, percent increase over treatment control",Apogee wheat; [4],[43.4%]
same,"Fresh Weight, percent increase over treatment control",Apogee wheat; [4],[19.2%]
same,"Total Dry Weight, percent increase over treatment control",Apogee wheat; [4],[7.6%]
same,"Total Spike Number, percent increase over treatment control",Apogee wheat; [4],[−3.7%]
same,"Total Tiller Number, percent increase over treatment control",Apogee wheat; [4],[37.5%]
same,"Δ Canopy Density, percent increase over treatment control",Apogee wheat; [4],[42.1%]
same,Canopy Density,Butterhead lettuce; [5],15.58
same,Fresh Weight,Butterhead lettuce; [5],93.94 grams
same,Δ Canopy Density,Butterhead lettuce; [5],5.12
same,"Canopy Density, percent increase over stress control",Butterhead lettuce; 10 ppm ACC,(−11.5%)
same,"Fresh Weight, percent increase over stress control",Butterhead lettuce; 10 ppm ACC,(−8.5%)
same,"Δ Canopy Density, percent increase over stress control",Butterhead lettuce; 10 ppm ACC,(−24.9%)
same,"Canopy Density, percent increase over treatment control",Butterhead lettuce; 10 ppm ACC,[5.9%]
same,"Fresh Weight, percent increase over treatment control",Butterhead lettuce; 10 ppm ACC,[11.6%]
same,"Δ Canopy Density, percent increase over treatment control",Butterhead lettuce; 10 ppm ACC,[46.3%]
same,Canopy Density,Butterhead lettuce; [6],16.65
same,Fresh Weight,Butterhead lettuce; [6],115.11 grams
same,Δ Canopy Density,Butterhead lettuce; [6],5.08
same,"Canopy Density, percent increase over stress control",Butterhead lettuce; 30 ppm ACC,(−5.4%)
same,"Fresh Weight, percent increase over stress control",Butterhead lettuce; 30 ppm ACC,(12.1%)
same,"Δ Canopy Density, percent increase over stress control",Butterhead lettuce; 30 ppm ACC,(−25.5%)
same,"Canopy Density, percent increase over treatment control",Butterhead lettuce; 30 ppm ACC,[13.2%]
same,"Fresh Weight, percent increase over treatment control",Butterhead lettuce; 30 ppm ACC,[36.8%]
same,"Δ Canopy Density, percent increase over treatment control",Butterhead lettuce; 30 ppm ACC,[45.1%]
same,Canopy Density,Butterhead lettuce; [7],15.80
same,Fresh Weight,Butterhead lettuce; [7],97.51 grams
same,Δ Canopy Density,Butterhead lettuce; [7],4.11
same,"Canopy Density, percent increase over stress control",Butterhead lettuce; 100 ppm ACC,(−10.2%)
same,"Fresh Weight, percent increase over stress control",Butterhead lettuce; 100 ppm ACC,(−5.1%)
same,"Δ Canopy Density, percent increase over stress control",Butterhead lettuce; 100 ppm ACC,(−39.7%)
same,"Canopy Density, percent increase over treatment control",Butterhead lettuce; 100 ppm ACC,[7.4%]
same,"Fresh Weight, percent increase over treatment control",Butterhead lettuce; 100 ppm ACC,[15.9%]
same,"Δ Canopy Density, percent increase over treatment control",Butterhead lettuce; 100 ppm ACC,[17.4%]
same,Seed Number per Pod,[1]; 10 ppm ACC spray at flowering,14.8
same,Seed Yield per Pod,[1]; 10 ppm ACC spray at flowering,0.029 grams
same,Single Seed Weight,[1]; 10 ppm ACC spray at flowering,0.0019 grams
same,"Seed Number per Pod, percent increase over treatment control",[1]; 10 ppm ACC,[6.5%]
same,"Seed Yield per Pod, percent increase over treatment control",[1]; 10 ppm ACC,[0%]
same,"Single Seed Weight, percent increase over treatment control",[1]; 10 ppm ACC,[−9.5%]
same,Seed Number per Pod,[1]; 30 ppm ACC spray at flowering,15.1
same,Seed Yield per Pod,[1]; 30 ppm ACC spray at flowering,0.033 grams
same,Single Seed Weight,[1]; 30 ppm ACC spray at flowering,0.0021 grams
same,"Seed Number per Pod, percent increase over treatment control",[1]; 30 ppm ACC,[8.6%]
same,"Seed Yield per Pod, percent increase over treatment control",[1]; 30 ppm ACC,[13.8%]
same,"Single Seed Weight, percent increase over treatment control",[1]; 30 ppm ACC,[0%]
same,Seed Number per Pod,[1]; 100 ppm ACC spray at flowering,17.4
same,Seed Yield per Pod,[1]; 100 ppm ACC spray at flowering,0.036 grams
same,Single Seed Weight,[1]; 100 ppm ACC spray at flowering,0.0020 grams
same,"Seed Number per Pod, percent increase over treatment control",[1]; 100 ppm ACC,[25.2%]
same,"Seed Yield per Pod, percent increase over treatment control",[1]; 100 ppm ACC,[24.1%]
same,"Single Seed Weight, percent increase over treatment control",[1]; 100 ppm ACC,[−4.8%]
same,Seed Number per Pod,[1]; 300 ppm ACC spray at flowering,15.6
same,Seed Yield per Pod,[1]; 300 ppm ACC spray at flowering,0.030 grams
same,Single Seed Weight,[1]; 300 ppm ACC spray at flowering,0.0019 grams
same,"Seed Number per Pod, percent increase over treatment control",[1]; 300 ppm ACC,[12.2%]
same,"Seed Yield per Pod, percent increase over treatment control",[1]; 300 ppm ACC,[3.4%]
same,"Single Seed Weight, percent increase over treatment control",[1]; 300 ppm ACC,[−9.5%]
